Publication PMC5560554, “Targeting of CDK9 with indirubin 3’-monoxime safely and durably reduces HIV viremia in chronically infected humanized mice” (PLoS ONE, 2017)
Where two headings read alike, the source gives them in different places. Blank lines part the entries; values can stand above or below the compound they belong to.

Tested on: HIV-1 NL4-3
Assay: Drug susceptibility assay in PHA-activated PBMCs (HIV p24 ELISA day 7)
Format: cell-based
Details: for decrease of ART EC50 value at 1 μM IM: HIV-1 NL4-3 in PBMCs, EC50 without IM vs with 1 μM IM; for EC50: Human immunodeficiency virus 1, NL43, PBMC, 168 h, HIV NL4-3 in PBMCs, p24 day 7, (95% CI) in cell; for P24: PBMCs, NL4-3, day 7
Description: The ARTs tenofovir, raltegravir and indinavir were obtained from the NIH AIDS Research and Reference Reagent Program (Gaithersburg, MD). Drug susceptibility assays were performed in PBMCs as previously. Briefly, donor PBMCs were activated by culture with phytohemagglutinin (PHA) for 3 days. Activated PBMCs were infected with HIV (M.O.I of 0.001) for 2 hours in the absence of IM or ARTs, washed to remove non-adsorbed virus, and plated in culture medium containing IL-2 and various dilutions of IM and ARTs alone and in combination. On day 3, fresh medium with fresh drug was added to the cultures. On day 7, cultures were evaluated for HIV production by measuring HIV p24 levels in the culture supernatants by ELISA (PerkinElmer Life Sciences, Inc., Boston, Massachusetts). Data were normalized to p24 levels in drug untreated controls (100%) and EC50 values determined by fitting the data to sigmoidal dose-response (variable slope) curves using GraphPad Prism 5.0 software.
A potential use of CDK9 inhibitor for the treatment of HIV will probably be in combination with ARTs from other classes. We thus evaluated the antiviral interaction between IM and ARTs from the NRTI, integrase and protease inhibitor classes in PBMCs infectivity assays in vitro. We used the virus strain HIV-1 NL4-3 to ensure a robust viral replication in the assays. Although HIV-1 NL4-3 differs from HIV-1 BaL in usage of coreceptor for cell entry, it is expected to have similar sensitivity to the tested ARTs. […] These enhancements of ART potencies by IM are consistent with targeting of different steps of the HIV cycle by IM and the tested ARTs.

[1] = read-out: Geometric mean ART EC50, + 1μM IM
[2] = read-out: Geometric mean ART EC50, No IM

SMILES: Cc1nnc(C(=O)NC(C)(C)c2nc(C(=O)NCc3ccc(F)cc3)c(O)c(=O)n2C)o1 [RAL, raltegravir]
decrease of ART EC50 value at 1 μM IM: 3.3 fold
EC50 [1]: 2.12 nM
EC50 [2]: 6.98 nM
P24 (RAL 0.05 nM, + IM): 9.50 ng/mL
P24 (RAL 0.05 nM, No IM): 27.0 ng/mL
P24 (RAL 0.15 nM, + IM): 6.00 ng/mL
P24 (RAL 0.15 nM, No IM): 23.0 ng/mL
P24 (RAL 0.5 nM, + IM): 6.50 ng/mL
P24 (RAL 0.5 nM, No IM): 27.0 ng/mL
P24 (RAL 1.5 nM, + IM): 5.00 ng/mL
P24 (RAL 1.5 nM, No IM): 26.0 ng/mL
P24 (RAL 5 nM, + IM): 2.30 ng/mL
P24 (RAL 5 nM, No IM): 17.0 ng/mL
P24 (RAL 15 nM, + IM): 1.10 ng/mL
P24 (RAL 15 nM, No IM): 2.8 ng/mL
P24 (RAL 45 nM, + IM): 0.01 ng/mL
P24 (RAL 45 nM, No IM): 0.6 ng/mL

decrease of ART EC50 value at 1 μM IM: 2.2 fold
EC50 (+ 1μM IM, read-out: Geometric mean ART EC50): 3.55 nM
EC50 (No IM, read-out: Geometric mean ART EC50): 7.74 nM
SMILES: CC(C)(C)NC(=O)[C@@H]1CN(Cc2cccnc2)CCN1C[C@@H](O)C[C@@H](Cc1ccccc1)C(=O)N[C@H]1c2ccccc2C[C@H]1O [IND, indinavir]
P24 (IND 1.8 nM, + IM): 2.00 ng/mL
P24 (IND 1.8 nM, No IM): 41.00 ng/mL
P24 (IND 5.5 nM, + IM): 2.30 ng/mL
P24 (IND 5.5 nM, No IM): 37.00 ng/mL
P24 (IND 16.6 nM, + IM): 0.70 ng/mL
P24 (IND 16.6 nM, No IM): 17.00 ng/mL
P24 (IND 50 nM, + IM): 0.01 ng/mL
P24 (IND 50 nM, No IM): 0.01 ng/mL
P24 (IND 150 nM, + IM): 0.01 ng/mL
P24 (IND 150 nM, No IM): 0.01 ng/mL

SMILES: C[C@H](Cn1cnc2c(N)ncnc21)OCP(=O)(O)O [TDF, tenofovir]
decrease of ART EC50 value at 1 μM IM: 3 fold
EC50 [1]: 190 nM
EC50 [2]: 600 nM
P24 (TDF 0.01 µM, + IM): 10.0 ng/mL
P24 (TDF 0.01 µM, No IM): 63.0 ng/mL
P24 (TDF 0.03 µM, + IM): 9.0 ng/mL
P24 (TDF 0.03 µM, No IM): 61.0 ng/mL
P24 (TDF 0.1 µM, + IM): 6.6 ng/mL
P24 (TDF 0.1 µM, No IM): 48.0 ng/mL
P24 (TDF 0.3 µM, + IM): 3.8 ng/mL
P24 (TDF 0.3 µM, No IM): 35.0 ng/mL
P24 (TDF 1 µM, + IM): 1.7 ng/mL
P24 (TDF 1 µM, No IM): 17.0 ng/mL
P24 (TDF 3 µM, + IM): 0.7 ng/mL
P24 (TDF 3 µM, No IM): 4.0 ng/mL
P24 (TDF 10 µM, + IM): 0.3 ng/mL
P24 (TDF 10 µM, No IM): 0.6 ng/mL
